Results reported in US20050244328A1 (priority 2002, published 2005).
“And” between values parts separate entries of the source, which are not always exact repeats. Equal values may be shown once. Read-outs that look alike come from different tables or passages of the source.

What was measured:
[1] = tested on: Saccharomyces diastaticus (yeast); conditions: cited from earlier work
[2] = tested on: Pectinatus cervisiiphilus; conditions: 0.1 ppm of ClO2; contact time 5 min; cited from earlier work
[3] = tested on: Pediococcus Damnosus; conditions: cited from earlier work
[4] = tested on: Penicillum expansum (mould); conditions: cited from earlier work
[5] = tested on: Lactobacillus Brevis; conditions: contact time 300 s, cited from earlier work
[6] = tested on: Eschericia Coli; conditions: cited from earlier work
[7] = tested on: Fecal Coliform; experiment: Fecal coliform kill in ClO2-dosed post clarifier effluent, side stream pilot at WWTP 1 (Membrane Filter SM 9222D)
[8] = tested on: Silversides; experiment: In-house silverside bioassay of ClO2 treated effluent; assay type: in vivo, Menidia beryllina; conditions: numerous in-house tests, WWTP 1
[9] = tested on: Mysid shrimp; experiment: In-house mysid shrimp acute bioassay of treated effluent; conditions: 0.64 PPM DOSE; for surviving Mysid shrimp DAY 1 (bowls A, B) / surviving Mysid shrimp DAY 2 (bowls A, B) / surviving Mysid shrimp DAY 3 (bowls A, B) / surviving Mysid shrimp DAY 4 (bowls A, B): 10 initial per bowl, set up Aug. 20, 2002

Substance: Chlorine dioxide [ClO2]
- Inactivation in % ([1]; 0.15 ppm of ClO2, contact time 10 min): 99.9%
- Inactivation in % ([1]; 0.5 ppm of ClO2, contact time 10 min): >99.999%
- Inactivation in % ([1]; 1 ppm of ClO2, contact time 1 min): >99.999%
- Inactivation in % [2]: 99.9%
- Inactivation in % ([3]; 0.15 ppm of ClO2, contact time 20 min): 99.99%
- Inactivation in % ([3]; 0.3 ppm of ClO2, contact time 5 min): 99.99%
- Inactivation in % ([3]; 1 ppm of ClO2, contact time 5 min): 99.999%
- Inactivation in % ([4]; 0.5 ppm of ClO2, contact time 60 min): 99.99%
- Inactivation in % ([4]; 2 ppm of ClO2, contact time 20 min): 99.999%
- Inactivation in % ([5]; 0.15 ppm of ClO2): 99.9%
- Inactivation in % ([5]; 1 ppm of ClO2): >99.999%
- Inactivation in % ([6]; 0.15 ppm of ClO2, contact time 300 s): 99.9%
- Inactivation in % ([6]; 0.25 ppm of ClO2, contact time 60 s): >99.999%
- Fecal Coliform ([7]; 1.8 ppm, 5 min contact, pH 7.20, Feb. 6, 2001): <1 #cfu/100 mls
- Fecal Coliform ([7]; 1.8 ppm, 5 min contact, pH 7.20, Feb. 7, 2001): <1 #cfu/100 mls
- Fecal Coliform ([7]; 2.23 ppm, 5 min contact, pH 7.20, Feb. 6, 2001): <1 #cfu/100 mls
- Fecal Coliform ([7]; 2.23 ppm, 5 min contact, pH 7.20, Feb. 7, 2001): <1 #cfu/100 mls
- Fecal Coliform ([7]; 3.0 ppm, 5 min contact, pH 7.20, Feb. 6, 2001): <1 #cfu/100 mls
- Fecal Coliform ([7]; 3.0 ppm, 5 min contact, pH 7.20, Feb. 7, 2001): <1 #cfu/100 mls
- Fecal Coliform ([7]; 3.97 ppm, 5 min contact, pH 7.20, Feb. 6, 2001): <1 #cfu/100 mls
- Fecal Coliform ([7]; 3.97 ppm, 5 min contact, pH 7.20, Feb. 7, 2001): <1 #cfu/100 mls
- Fecal Coliform ([7]; 5% chlorite solution, ClO2 dose rate 3.0 mg/ltr, 5 minute contact, Jan. 24, 2001): <1 #cfu/100 mls
- Fecal Coliform ([7]; 5.0 ppm, 5 min contact, pH 7.20, Feb. 6, 2001): <1 #cfu/100 mls
- Fecal Coliform ([7]; 5.0 ppm, 5 min contact, pH 7.20, Feb. 7, 2001): <1 #cfu/100 mls
- Fecal Coliform ([7]; Injector 1.8 ppm, 5 min contact, pH 7.30, Feb. 5, 2001): <1 #cfu/100 mls
- Fecal Coliform ([7]; Injector 2.23 ppm, 5 min contact, pH 7.30, Feb. 5, 2001): <1 #cfu/100 mls
- Fecal Coliform ([7]; Injector 3.0 ppm, 5 min contact, pH 7.30, Feb. 5, 2001): <1 #cfu/100 mls
- Fecal Coliform ([7]; Injector 3.97 ppm, 5 min contact, pH 7.30, Feb. 5, 2001): <1 #cfu/100 mls
- Fecal Coliform ([7]; Injector 5.0 ppm, 5 min contact, pH 7.30, Feb. 5, 2001, (*) bits of algae in samples): 1 (*) #cfu/100 mls and <1 #cfu/100 mls
- dosing rate at which fecal coliform kills were also achieved (as low as) ([7]; further testing): 0.075 ppm
- fecal coliform kill ([7]; lower dosing rate of 1.8 ppm): effectively killed
- time required for a complete fecal kill ([7]; lower dosing rates): more than 2 minutes
- survival of Silversides post CLO2 dosing [8]: always survived
- survival rate of Mysid Shrimp 24 HR ([9]; 25% solution): 100
- survival rate of Mysid Shrimp 48 HR ([9]; 25% solution): 100
- survival rate of Mysid Shrimp 72 HR ([9]; 25% solution): 90
- survival rate of Mysid Shrimp 96 HR ([9]; 25% solution): 90
- surviving Mysid shrimp DAY 1 (bowls A, B) ([9]; 25% solution): 10
- surviving Mysid shrimp DAY 2 (bowls A, B) ([9]; 25% solution): 10
- surviving Mysid shrimp DAY 3 (bowls A, B) ([9]; 25% solution): 9
- surviving Mysid shrimp DAY 4 (bowls A, B) ([9]; 25% solution): 9
- survival rate of Mysid Shrimp 24 HR ([9]; 50% solution): 100
- survival rate of Mysid Shrimp 48 HR ([9]; 50% solution): 100
- survival rate of Mysid Shrimp 72 HR ([9]; 50% solution): 100
- survival rate of Mysid Shrimp 96 HR ([9]; 50% solution): 100
- surviving Mysid shrimp DAY 1 (bowls A, B) ([9]; 50% solution): 10
- surviving Mysid shrimp DAY 2 (bowls A, B) ([9]; 50% solution): 10
- surviving Mysid shrimp DAY 3 (bowls A, B) ([9]; 50% solution): 10
- surviving Mysid shrimp DAY 4 (bowls A, B) ([9]; 50% solution): 10
- survival rate of Mysid Shrimp 24 HR ([9]; 75% solution): 100
- survival rate of Mysid Shrimp 48 HR ([9]; 75% solution): 100
- survival rate of Mysid Shrimp 72 HR ([9]; 75% solution): 95
- survival rate of Mysid Shrimp 96 HR ([9]; 75% solution): 90
